Results reported in patent US20220089646A1 (THE UNIVERSITY OF QUEENSLAND, priority 2019, published 2022).
*1 amine or outer side, *2 acyl side, *3 side chain or, on linkers, in order; H or OH if unused. Where a SMILES comes first, the peptide text is derived from it. Bridges are numbered along the chain shown (N, C = ends). [ ]: non-standard residue; d: D form. ξ: configuration not given here. Phe(4-NO2) = N[C@@H](Cc1ccc([N+](=O)[O-])cc1)C(=O)O; Phe(4-Cl) = N[C@@H](Cc1ccc(Cl)cc1)C(=O)O; NHCH2CMe2S = CC(C)(CN[*:1])S[*:2]; NMeR = CN[C@@H](CCCNC(=N)N)C(=O)O; X1 = CC(C)(CN[*:2])S[*:1]; ξC = NC(CS)C(=O)O; Sar = CNCC(=O)O

Assays:
KOP = KOP (Homo sapiens, UniProt P41145); assay: In vitro cAMP activity at KOP (Table 10); format: cell-based; conditions: cAMP inhibition, four-parameter regression, normalised to U50488H
Procedure: (§1) The CP series compounds were assayed as follows: The assay was performed using a 96 well ½ area plate. The different cAMP standard solutions (3 μL/well) were plated in duplicate. The different concentrations of drug (3 μL/well), and control solutions (3 μL/well) were plated in triplicate. Following this, the acceptor bead mixture (3 μL/well) was added to the respective sets—either cAMP standard curve or the treatment. This was covered and incubated on the orbital shaker for 60 minutes at 37° C. Then, the donor bead mixture (10 μL/well) was added to each well. This was incubated at room temperature overnight on the orbital shaker.
(§2) For DP-11-06 the assay was carried out in the same way as for the CP compounds except it was incubated for 30 mins at 37° C.
(§3) For the CP series compounds and DP-11-06, the Ensight® Multimode Plate Reader was used to quantify the fluorescence units of each plate. Before reading, each plate was centrifuged at 280 g for 30 seconds. Using GraphPad Prism7® Software, cAMP concentrations were determined by fit spline/LOWESS analysis. The cAMP standard curve was used for interpolation at this point. The cAMP concentrations were then normalized to the highest cAMP concentration recorded and analyzed by one-way ANOVA for multiple comparisons. The IC50 for each compound was then calculated using GraphPad Prism7® with non-linear regression analysis using four parameter curve fitting.
(§4) The results shown in Table 10 utilized rat plasma. • Note that DP-7-11 and CP5 represent the same compound, and DP-7-12 and CP6 are the same compound. In this regard, a different regression analysis method was adopted on the above cAMP experiments. Particularly, a new non-linear regression (four-parameter) was adopted to better account for hill slope, thereby improving the regression fit.

MOP = MOP (Homo sapiens, UniProt P35372); assay: In vitro cAMP activity at MOP (Table 10); format: cell-based; conditions: cAMP inhibition, four-parameter regression
Procedure: as §1, §2, §3
(§5) In this regard, a different regression analysis method was adopted on the above cAMP experiments. Particularly, a new non-linear regression (four-parameter) was adopted to better account for hill slope, thereby improving the regression fit.

DOP = DOP (Homo sapiens, UniProt P41143); assay: In vitro cAMP activity at DOP (Table 10); format: cell-based; conditions: cAMP inhibition, four-parameter regression
Procedure: as §1, §2, §3, §5

[1] = target: T1, bovine pancreatic trypsin (Bos taurus, UniProt P00760); assay: Trypsin stability assay (Table 10); format: in vitro ADME; conditions: for half-life: bovine pancreatic trypsin 2.5 μg/mL, 37° C., One Phase Decay, read-out: Stability (t1/2, mins) Trypsin
T1 construct: from tissue; host or cells: bovine pancreas
T1 sequence (P00760 24-246): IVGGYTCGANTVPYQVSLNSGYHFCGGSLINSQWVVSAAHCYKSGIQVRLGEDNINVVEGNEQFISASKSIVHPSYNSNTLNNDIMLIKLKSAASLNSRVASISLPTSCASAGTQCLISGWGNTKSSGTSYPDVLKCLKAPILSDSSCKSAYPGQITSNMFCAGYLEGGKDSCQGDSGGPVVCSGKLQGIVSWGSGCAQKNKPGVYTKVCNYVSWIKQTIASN
Excerpt: (§6) FIG. 20 is a series of graphs showing the stability of selected peptides in a trypsin (left-hand graphs) and plasma (right-hand graphs) stability assay (data normalised to concentration of each peptide at t=0, determined by LCMS, within each substrate; data analysed using One Phase Decay nonlinear regression in Prism software and each experiment performed in triplicate; mean+/−SEM);
Plasma was collected in house from adult mixed-gender Wistar rats, prepared using 2% EDTA as per standard practice. Peptides were added to rat plasma samples at 37° C. (in a water bath) with final concentrations of 100 uM (1:9 peptide in water:plasma) and a 50 μL sample was immediately taken and precipitated in 150 μL cold acetonitrile (9:1 ACN:water). This sample became the baseline, or t=0 min sample. […] At each time point, the 50 μL of plasma collected was immediately added to cold ACN. Each collected plasma sample in ACN was directly vortexed for 30 seconds and then centrifuged at room temperature (13K rpm, 5 min). 150 μL of the supernatant was taken and directly placed in glass HPLC vials for LCMS analysis.
The protocol for the trypsin stability assay was very similar to the plasma stability assay discussed above. The only difference was the use of a trypsin solution (bovine pancreatic trypsin 2.5 μg/mL in NH4HCO3 buffer, pH approx. 8-8.5, 37° C.) instead of rat plasma. Volumes, times and preparation protocols were exactly as mentioned above.

[2] = Plasma stability assay (Table 10); format: in vitro ADME; conditions: rat plasma, 37° C., 100 uM peptide, One Phase Decay; read-out: Stability (t1/2, mins) Plasma
Excerpt: as §6, §4
Plasma was collected in house from adult mixed-gender Wistar rats, prepared using 2% EDTA as per standard practice. Peptides were added to rat plasma samples at 37° C. (in a water bath) with final concentrations of 100 uM (1:9 peptide in water:plasma) and a 50 μL sample was immediately taken and precipitated in 150 μL cold acetonitrile (9:1 ACN:water). This sample became the baseline, or t=0 min sample. Plasma with peptide was immediately returned to the water bath and subsequent 50 μL samples were taken at 5, 10, 15, 30, 60 and 120 min. At each time point, the 50 μL of plasma collected was immediately added to cold ACN. Each collected plasma sample in ACN was directly vortexed for 30 seconds and then centrifuged at room temperature (13K rpm, 5 min). 150 μL of the supernatant was taken and directly placed in glass HPLC vials for LCMS analysis.

trypsin = target: T2, trypsin (Bos taurus, UniProt P00760); assay: Trypsin stability; format: in vitro ADME; conditions: for Trypsin: complete degradation within: 37° C. (Table 8)
T2 sequence (P00760 24-246): T1 sequence (P00760 24-246)
Procedure: (§7) Purified DP-7-11 (1 mg/mL) was dissolved in 0.1 M ammonium bicarbonate (NH4HCO3) buffer. To prepare a stock trypsin solution, 1 mg trypsin was dissolved in 50 mL of 0.1 M NH4HCO3 buffer. Equal volumes of the stock trypsin solution (62.5 μL) and DP-7-11 solution (62.5 μL) were incubated in 375 μL of 0.1M NH4HCO3 buffer in a 37° C. water bath. Aliquots of 100 μL were collected from this mixture at set time intervals of 0 min, up to 24 hours. Ice-cold acetonitrile containing 0.5% TFA was used to quench the reaction between DP-7-11 and trypsin at predetermined intervals, and just prior to HPLC or LC-MS analysis. The quenched samples were vortexed for 10 minutes followed by centrifugation at 12,000 rpm for a further 15 minutes. Supernatant was sampled and analysed using analytical RP-HPLC or LC-MS. Samples without trypsin acted as negative controls and were sampled at two intervals of 0 hour and 6 hours.
(§8) As used in this serum and trypsin stability discussion, the term ‘degraded completely’ relates to the relevant compound being completely absent when tested. In other words, the compound being tested is not observed when tested.
(§9) The serum and trypsin stability of DP-7-11 and DP-7-12 were tested (in some instances again) using LC-MS. The LC-MS utilized in this study was more sensitive than the LC-MS utilized in the above tests.

Serum stability = format: in vitro ADME; conditions: rat, serum, 37° C., LC-MS (Table 8)
Procedure: as §7
Serum stability of DP-7-11 was also performed. In this regard, rat serum replaced trypsin and NH4HCO3 buffer. Water was used as negative control in place of serum, with the stability study performed in an identical fashion to the trypsin study. […] DP-11-00 and DP-11-06 were tested in a similar manner.
as §8
This appears to indicate the improved metabolic stability of the present invention.
as §9

Sequence of DOP (P41143 whole entry): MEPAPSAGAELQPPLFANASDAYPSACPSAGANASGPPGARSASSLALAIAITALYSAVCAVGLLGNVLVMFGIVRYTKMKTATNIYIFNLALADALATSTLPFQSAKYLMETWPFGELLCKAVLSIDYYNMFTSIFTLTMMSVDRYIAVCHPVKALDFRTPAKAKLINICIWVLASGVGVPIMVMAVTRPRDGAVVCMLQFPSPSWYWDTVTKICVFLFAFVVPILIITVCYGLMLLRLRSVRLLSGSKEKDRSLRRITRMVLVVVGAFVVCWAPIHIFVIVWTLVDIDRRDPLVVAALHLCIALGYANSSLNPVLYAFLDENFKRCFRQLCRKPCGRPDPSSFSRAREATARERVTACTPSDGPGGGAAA
Sequence of KOP (P41145 whole entry): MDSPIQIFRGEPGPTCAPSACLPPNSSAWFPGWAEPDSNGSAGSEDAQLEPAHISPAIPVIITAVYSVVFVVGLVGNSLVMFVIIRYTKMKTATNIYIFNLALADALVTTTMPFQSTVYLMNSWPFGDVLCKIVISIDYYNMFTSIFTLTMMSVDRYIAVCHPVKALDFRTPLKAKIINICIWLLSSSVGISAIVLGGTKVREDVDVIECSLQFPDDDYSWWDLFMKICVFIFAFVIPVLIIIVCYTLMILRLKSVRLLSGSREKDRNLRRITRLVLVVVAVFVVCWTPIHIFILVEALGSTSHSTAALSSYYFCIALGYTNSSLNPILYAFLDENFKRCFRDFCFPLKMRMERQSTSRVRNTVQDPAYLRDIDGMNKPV
Sequence of MOP (P35372 whole entry): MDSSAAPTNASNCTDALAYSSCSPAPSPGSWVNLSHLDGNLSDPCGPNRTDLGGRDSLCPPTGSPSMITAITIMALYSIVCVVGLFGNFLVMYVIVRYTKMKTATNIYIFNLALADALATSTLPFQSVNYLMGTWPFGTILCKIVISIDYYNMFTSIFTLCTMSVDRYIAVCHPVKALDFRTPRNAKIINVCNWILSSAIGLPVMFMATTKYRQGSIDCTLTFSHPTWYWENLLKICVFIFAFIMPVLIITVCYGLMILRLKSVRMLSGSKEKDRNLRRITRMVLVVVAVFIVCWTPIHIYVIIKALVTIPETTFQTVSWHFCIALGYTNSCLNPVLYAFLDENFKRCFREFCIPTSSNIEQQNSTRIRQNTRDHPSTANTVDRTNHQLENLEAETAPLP

Row | Compound | EC50 (KOP) | EC50 (MOP) | EC50 (DOP) | half-life [1] | half-life [2] | also measured
1 | CC1(C)CNC(=O)C[C@H](NC(=O)[C@@H](N)Cc2ccc(O)cc2)C(=O)NCC(=O)N[C@@H](Cc2ccccc2)C(=O)NC(C(=O)N[C@@H](CCCNC(=N)N)C(=O)N[C@@H](CCCNC(=N)N)C(N)=O)CSS1 (stereo partly drawn) [CP2, c(Tyr-Asp-Gly-Phe-SSa-Arg-Arg)] (H-YDGF[ξC]RR-NH2; linker 2-5 via NHCH2CMe2S; N-terminus assumed) | 320 nM | 2330 nM | 1380 nM | < 0.01 min | < 0.01 min | 
2 | CC1(C)CNC(=O)C[C@@H](C(=O)N[C@@H](CCCNC(=N)N)C(=O)N[C@@H](CCCNC(=N)N)C(N)=O)NC(=O)[C@H](Cc2ccccc2)NC(=O)C(NC(=O)CNC(=O)[C@@H](N)Cc2ccc(O)cc2)CSS1 (stereo partly drawn) [CP3, c(Tyr-Gly-SSa-Phe-Asp-Arg-Arg)] (H-YG[ξC]FDRR-NH2; linker 3-5 via X1; N-terminus assumed) | > 10000 nM | > 10000 nM | > 10000 nM |  |  | 
3 | CC(C)C[C@H](NC(=O)[C@H](Cc1ccccc1)NC(=O)CNC(=O)CNC(=O)[C@@H](N)Cc1ccc(O)cc1)C(=O)N[C@@H](CCCNC(=N)N)C(=O)N[C@@H](CCCNC(=N)N)C(N)=O [DP-7-00, Tyr-Gly-Gly-Phe-Leu-Arg-Arg] |  |  |  |  |  | Susceptibility to trypsin digestion (trypsin): highly susceptible; Trypsin: complete degradation within (trypsin): within 1 h
4 | CC[C@H](C)[C@H](NC(=O)[C@H](CCCN=C(N)N)NC(=O)[C@H](CCCN=C(N)N)NC(=O)[C@H](CC(C)C)NC(=O)[C@H](Cc1ccccc1)NC(=O)CNC(=O)CNC(=O)[C@@H](N)Cc1ccc(O)cc1)C(=O)N[C@@H](CCCN=C(N)N)C(=O)N1CCC[C@H]1C(=O)N[C@@H](CCCCN)C(N)=O [DP-11-00] |  |  |  |  |  | Susceptibility to trypsin digestion (trypsin): highly susceptible; Trypsin: complete degradation within (trypsin): within 1 h
5 | CC(C)C[C@H](NC(=O)[C@H](Cc1ccc(Cl)cc1)NC(=O)CN(C)C(=O)[C@@H](N)Cc1ccc(O)cc1)C(=O)N[C@@H](CCCNC(=N)N)C(=O)N[C@H](CCCNC(=N)N)C(=O)NC1CSSC(C)(C)CNC(=O)C[C@@H](C(=O)N[C@@H](CCCCN)C(N)=O)NC(=O)[C@H](CCCNC(=N)N)NC1=O (stereo partly drawn) [CP10, c(Tyr-Sar-(p-Cl-Phe)-Leu-Arg-D(Arg)-SSa-Arg-Asp-Lys)] (H-Y[Sar][Phe(4-Cl)]LR[dR][ξC]RDK-NH2; linker 7-9 via X1; N-terminus assumed) | 0.94 nM | 1600 nM | 127 nM | 2.3 min |  | 
6 | CC[C@H](C)[C@H](NC(=O)C1CSSC(C)(C)CNC(=O)C[C@@H](NC(=O)[C@H](Cc2ccccc2)NC(=O)CNC(=O)CNC(=O)[C@@H](N)Cc2ccc(O)cc2)C(=O)N[C@@H](CCCNC(=N)N)C(=O)N1)C(=O)N[C@@H](CCCNC(=N)N)C(=O)N1CCC[C@H]1C(=O)N[C@@H](CCCCN)C(N)=O (stereo partly drawn) [DP-11-06, c(Tyr-Gly-Gly-Phe-D(Asp)-Arg-SSa-Ile-Arg-Pro-Lys)] (H-YGGF[dD]R[ξC]IRPK-NH2; linker 5-7 via NHCH2CMe2S; N-terminus assumed) | 0.75 nM |  |  | 360 min | 30 min | half-life (Serum stability): 1800 s; Peptide remained in trypsin after 360 minutes ([1]; n = 1): # (more than 90% remained after 360 minutes)
7 | CC1(C)CNC(=O)C[C@H](C(=O)N[C@@H](CCCNC(=N)N)C(=O)N[C@@H](CCCNC(=N)N)C(N)=O)NC(=O)[C@H](Cc2ccccc2)NC(=O)C(NC(=O)CNC(=O)[C@@H](N)Cc2ccc(O)cc2)CSS1 (stereo partly drawn) [DP-7-13, c(Tyr-Gly-SSa-Phe-D(Asp)-Arg-Arg)] (H-YG[ξC]F[dD]RR-NH2; linker 3-5 via X1; N-terminus assumed) |  |  |  | < 0.01 min | < 0.01 min | 
8 | CC(C)C[C@H](NC(=O)[C@H](Cc1ccc([N+](=O)[O-])cc1)NC(=O)CN(C)C(=O)[C@@H](N)Cc1ccc(O)cc1)C(=O)N[C@@H](CCCNC(=N)N)C(=O)N(C)[C@@H](CCCNC(=N)N)C(=O)NC1CSSC(C)(C)CNC(=O)C[C@@H](C(=O)N[C@@H](CCCCN)C(N)=O)NC(=O)[C@H](CCCNC(=N)N)NC1=O (stereo partly drawn) [CP12, c(Tyr-Sar-(p-NO2-Phe)-Leu-Arg-NMA-SSa-Arg-Asp-Lys)] (H-Y[Sar][Phe(4-NO2)]LR[NMeR][ξC]RDK-NH2; linker 7-9 via X1; N-terminus assumed) | 7.5 nM |  |  | 0.019 min | < 0.01 min | 
9 | CC1(C)CNC(=O)C[C@@H](NC(=O)CNC(=O)[C@@H](N)Cc2ccc(O)cc2)C(=O)N[C@@H](Cc2ccccc2)C(=O)N[C@H](C(=O)N[C@@H](CCCNC(=N)N)C(=O)N[C@@H](CCCNC(=N)N)C(N)=O)CSS1 [DP-7-14, c(Tyr-Gly-D(Asp)-Phe-SSa-Arg-Arg)] (H-YG[dD]FCRR-NH2; linker 3-5 via NHCH2CMe2S) |  |  |  | < 0.01 min | < 0.01 min | 
10 | CC1(C)CNC(=O)C[C@H](NC(=O)CNC(=O)[C@@H](N)Cc2ccc(O)cc2)C(=O)N[C@@H](Cc2ccccc2)C(=O)NC(C(=O)N[C@@H](CCCNC(=N)N)C(=O)N[C@@H](CCCNC(=N)N)C(N)=O)CSS1 (stereo partly drawn) [CP4, c(Tyr-Gly-Asp-Phe-SSa-Arg-Arg)] (H-YGDF[ξC]RR-NH2; linker 3-5 via NHCH2CMe2S; N-terminus assumed) | > 10000 nM | > 10000 nM | > 10000 nM |  |  | 
